Experimental data published in the supplement of paper PMC4858399.
Counter-ions that a name gives are not always drawn.

How the values were obtained:
[1] = test system: Caenorhabditis elegans N2; test: mean nematode size ln(EXT) after 48 h, plate-adjusted (DMSO control set to 6) (ln(EXT), control-adjusted); higher = larger nematodes / less growth inhibition; conditions: exposure time 48 h
Outline: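 In K-medium with killed OP50, 1% DMSO and 0.5–200 µM chemical, synchronised N2 L1 larvae of C. elegans (50 per well) grew for 48 h at 20°C. Extinction was read for every worm on the Biosort, with debris removed by a growth model. Natural-log values averaged per well gave mean size, which was corrected per plate by subtracting the vehicle control mean and adding 6.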

[2] = test system: Caenorhabditis elegans N2; test: lowest effective concentration for larval growth inhibition (size below effect threshold); higher = less potent; conditions: exposure time 48 h
Outline: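 In 96-well plates, 50 C. elegans N2 L1 larvae per well were cultured at 20°C for 48 h in K-medium with killed bacteria and 1% DMSO, plus the chemical at 0.5, 1, 5, 10, 50, 100 or 200 µM. Size was measured as per-worm extinction on a Biosort and log-transformed into well means. Taking the first dose where the plate-adjusted mean size sits under 5.665 and stays there at higher doses gives the lowest effective concentration.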

| Compound | mean nematode size ln(EXT) (ln) ([1]; 0.5 µM) | mean nematode size ln(EXT) (ln) ([1]; 1 µM) | mean nematode size ln(EXT) (ln) ([1]; 5 µM) | mean nematode size ln(EXT) (ln) ([1]; 10 µM) | mean nematode size ln(EXT) (ln) ([1]; 50 µM) | mean nematode size ln(EXT) (ln) ([1]; 100 µM) | mean nematode size ln(EXT) (ln) ([1]; 200 µM) | lowest effective concentration [2] |
| --- | --- | --- | --- | --- | --- | --- | --- | --- |
| OCCOCCOCCO [Triethylene glycol] | 5.84 | 5.84 | 5.95 | 5.98 | 5.88 | 5.87 | 5.84 | > 200 µM |
| CC(=O)C1C(=O)C=C(C)OC1=O (centres undefined) [Sodium dehydroacetate] | 5.99 | 5.95 | 5.97 | 5.86 | 5.94 | 5.93 | 5.72 | > 200 µM |
| COc1ccc2c(c1)c(CC(=O)O)c(C)n2C(=O)c1ccc(Cl)cc1 [Indomethacin] | 6.03 | 5.93 | 5.95 | 5.96 | 5.93 | 5.93 | 5.83 | > 200 µM |
| CC1=C(C)S(=O)(=O)CCS1(=O)=O [Dimethipin] | 5.96 | 5.96 | 5.91 | 5.93 | 5.98 | 6 | 5.93 | > 200 µM |
| Cc1ccc(N(C)C)cc1 [N,N,4-Trimethylaniline] | 5.82 | 5.87 | 5.94 | 5.79 | 5.76 | 5.72 | 5.73 | > 200 µM |
| Cc1cccc(N)c1 [3-Methylaniline] | 5.82 | 5.86 | 5.86 | 5.88 | 5.91 | 5.99 | 5.79 | > 200 µM |
| CN(C)C=O [N,N-Dimethylformamide] | 5.86 | 5.92 | 5.88 | 5.84 | 6.01 | 5.79 | 5.78 | > 200 µM |
| O=Cc1ccco1 [Furfural] | 5.92 | 5.88 | 5.88 | 5.91 | 5.95 | 5.83 | 5.82 | > 200 µM |
| CN(C)CCCN(C)CCCN(C)C | 5.82 | 5.85 | 5.88 | 5.85 | 5.81 | 5.89 | 5.96 | > 200 µM |
| c1cc(-c2ccncc2)ccn1 [4,4'-bipyridine] | 5.97 | 5.91 | 5.89 | 5.94 | 5.95 | 6.01 | 5.85 | > 200 µM |
| N#C/N=C1\SCCN1Cc1ccc(Cl)nc1 [Thiacloprid] | 5.99 | 5.88 | 5.94 | 5.96 | 5.96 | 5.89 | 5.81 | > 200 µM |
| CCCCC(CC)COC(=O)c1ccccc1C(=O)OCC(CC)CCCC (centres undefined) [Diethylhexyl phthalate] | 5.9 | 5.91 | 5.76 | 5.85 | 5.67 | 6.02 | 5.76 | > 200 µM |
| Oc1cc(Cl)c(Cl)cc1Cl [2,4,5-Trichlorophenol] | 5.83 | 5.83 | 5.83 | 5.78 | 5.77 | 3.41 | 5.81 | > 200 µM |
| Cc1ccc(C(C)C)c(O)c1 [Thymol] | 5.92 | 5.82 | 5.66 | 5.65 | 5.67 | 5.51 | 5.72 | > 200 µM |
| CCc1cccc(CC)c1N [2,6-Diethylaniline] | 5.78 | 5.83 | 5.81 | 5.8 | 5.82 | 5.84 | 5.68 | > 200 µM |
| CCCC(=O)OCC [Ethyl butyrate] | 5.9 | 5.93 | 5.96 | 6.03 | 5.94 | 5.91 | 5.82 | > 200 µM |
| COCCOCCOC [Bis(2-methoxyethyl) ether] | 5.88 | 5.82 | 5.78 | 5.69 | 5.85 | 5.83 | 5.8 | > 200 µM |
| N[C@@H](Cc1c[nH]c2ccccc12)C(=O)O [L-Tryptophan] | 5.91 | 5.87 | 5.89 | 5.86 | 5.85 | 5.96 | 5.7 | > 200 µM |
| ClCCOCCCl [Bis(2-chloroethyl)ether] | 5.78 | 6.14 | 5.94 | 5.96 | 5.8 | 5.86 | 5.72 | > 200 µM |
| O=C1NC(=O)C(c2ccccc2)(c2ccccc2)N1 [5,5-Diphenylhydantoin] | 5.94 | 5.99 | 5.92 | 5.94 | 5.91 | 5.88 | 5.78 | > 200 µM |
| O=c1n(Cl)c(=O)n(Cl)c(=O)n1Cl [Symclosene] | 5.9 | 5.76 | 5.62 | 5.82 | 5.73 | 5.69 | 5.74 | > 200 µM |
| COCCOCCO [Diethylene glycol monomethyl ether] | 5.87 | 5.91 | 5.93 | 5.85 | 5.82 | 5.94 | 5.68 | > 200 µM |
| CC(C)c1ccc(C(=O)N=C(N)N)cc1S(C)(=O)=O [Cariporide mesylate (HOE642)] | 5.88 | 5.82 | 5.8 | 5.77 | 5.7 | 5.62 | 5.71 | > 200 µM |
| Nc1c(Cl)c(Cl)nc(C(=O)O)c1Cl [Picloram] | 6.16 | 6.06 | 6.09 | 6.14 | 6.12 | 6.14 | 5.97 | > 200 µM |
| Cc1ccc(N=C=O)cc1N=C=O [Toluene-2,4-diisocyanate] | 5.73 | 5.8 | 5.73 | 5.78 | 5.7 | 5.61 | 5.67 | > 200 µM |
| OCc1ccccc1 [Benzyl alcohol] | 5.85 | 5.94 | 5.9 | 5.84 | 5.95 | 5.93 | 5.81 | > 200 µM |
| O=C(O)c1nc(Cl)ccc1Cl [Clopyralid] | 5.75 | 5.75 | 5.75 | 5.87 | 5.93 | 5.89 | 6.08 | > 200 µM |
| Cn1c(-c2ccccc2)cc(-c2ccccc2)[n+]1C [Difenzoquat metilsulfate] | 6.06 | 6.04 | 6.06 | 6.07 | 5.99 | 6.1 | 5.9 | > 200 µM |
